Marks after values point to notes of the source that are not given here.
Tests used:
[1] = Iron source fed to gestating sows; piglet blood hemoglobin, hematocrit and serum ferritin at farrowing; assay type: in vivo, sows / piglets; settings: sows fed iron source daily from 4 weeks before farrowing
Text: Ferrous iron was chelated to various high nitrogen-containing amino acid chelates. Six grams of such a chelate formula (0.6 g Fe) was fed daily to gestating sows beginning 4 weeks before expected farrowing. Another group of gestating sows received 2 g daily of ferrous fumarate (0.67 g Fe) for the same period. One week prior to farrowing, the dosages of iron were doubled for each group.
At farrowing blood samples were taken from each piglet and assayed for hemoglobin, hematocrit, and serum ferritin. The hemoglobin and hematocrit represent current iron status but serum ferritin represents iron storage for future use.

[2] = chicks, 21 days, 40 mg zinc per day per kg feed
Experimental: (§1) A group of one day old chicks were administered 40 mg zinc per day per kg feed for 21 consecutive days. […] At the end of 21 days, all chicks in all groups were killed, freeze dried, and a whole body assay for zinc performed.

[3] = chicks, 21 Day, 40 mg zinc per day per kg feed
Experimental: as §1

[4] = Isotope study: deposition of 65zinc into male sex organ tissues after single intravenous dose; assay type: in vivo; settings: zinc sufficient adult male rats, single I.V. dose 0.06 mg zinc, 24 hours post-dosing
Experimental: In an isotope study, three groups of zinc sufficient adult male rats (6/group) received a single intravenous (I.V.) dose of 0.06 mg zinc containing 10 microcurines of zinc chelated to either arginine or glycine or as zinc chloride (ZnCl2). The arginine contained about twice as much nitrogen bonded to the zinc atom as did glycine. The ZnCl2 had no nitrogen bonded to the zinc. Twenty four hours post-dosing, all animals were sacrificed and their testes, epididymis, and seminal vesicles were assayed for zinc. The male sex organs were targeted for these zinc assays because of the dominant role zinc plays in their proper functioning. In theory, the uptake of zinc from the three sources into the tissues should have been equivalent since all three sources were administered by I.V. and none of the animals was zinc deficient.
As noted above, arginine has about twice as much nitrogen in the ligand as glycine.

[5] = Tied-off ileum section dosed with 65Zn solution; 65Zn in liver, heart and spleen by liquid scintillation; assay type: in vivo; settings: non-fasted rats, 1×10^−4M solution in tied off ileum section, 2 hours post dosing
Experimental: Non-fasted rats were first anesthetized and then their intestines exposed. A 10 cm section of the ileum was tied off at both ends extending 15 cm to 5 cm proximal to the ileoceal valve. At each end, a 0.5 cm incision was made allowing the tied off section to be thoroughly washed with Ringers solution via the incisions. A solution containing ^65ZnCl2 or ^65Zn Histidine (1×10^−4M) was introduced into the tied off section. At 2 hours post dosing, the rats were killed by cervical dislocation. Their livers, hearts, and spleens were taken, weighed, dissected, and assayed by liquid scintillation for ^65Zn.

## O=C([O-])/C=C/C(=O)[O-].[Fe+2] [Ferrous Fumarate, ferrous fumarate]
[1]; a/b P < 0.01
  Serum Ferritin: 20.1^b ng/ml
[1]; doubled in the last week
  Hematocrit: 33.2%
  Hemoglobin: 9.7 g/dL

## NCC(=O)[O-].NCC(=O)[O-].[Zn+2] [Zn Bisglycinate (2:1), zinc bisglycinate (2:1)]
[2]
  zinc retention in the body (in words): increased to some degree
[3]
  Body Weight: 812.55 g
  Gain/Feed: .078 g

## O=[N+]([O-])[O-].O=[N+]([O-])[O-].[Zn+2] [Zn Nitrate, zinc nitrate]
[2]
  zinc retention in the body (in words): similar
[3]
  Body Weight: 734.98 g
  Gain/Feed: 0.74 g

## [Cl-].[Cl-].[Zn+2] [^65Zn Chloride, zinc chloride]
[4]; epididymis
  Deposition of ^65zinc into tissue: Epididymis: Negligible
[4]; seminal vesicle
  Deposition of ^65zinc into tissue: Seminal Vesicle: Negligible
[4]; testes
  Deposition of ^65zinc into tissue: Testes: Negligible
[5]; heart
  ^65Zn in tissue: Heart: 1.00 ± 0.33 number × 10^−10 Zn/gm
[5]; liver
  ^65Zn in tissue: Liver: 8.67 ± 5.67 number × 10^−10 Zn/gm
[5]; spleen
  ^65Zn in tissue: Spleen: 3.50 ± 0.25 number × 10^−10 Zn/gm

## zinc bisarginate (2:1) [Zn Bisarginate (2:1)]
[2]
  zinc retention in the body (in words): increased over zinc bisglycinate (2:1) significantly
[3]
  Body Weight: 829.15 g
  Gain/Feed: .078 g

## zinc glycinate (1:1) [Zn Glycinate (1:1)]
[2]
  zinc retention in the body (in words): similar
[3]
  Body Weight: 817.08 g
  Gain/Feed: 0.77 g

Source: patent US20080194679A1, “Compositions and methods for increasing metabolic activity in animal tissue” (priority 2007, published 2008)
